Laboratory results published in patent publication US20050101595A1, “N-containing cycloalkyl-substituted amino-thiazole derivatives and pharmaceutical compositions for inhibiting cell proliferation and methods for their use” (PFIZER INC., priority 2003, published 2005).
Structures can show the parent of a compound that is named as a salt. Where two headings read alike, the source gives them in different places.

What was measured:
[1] = molecular target: CDK2/Cyclin A (Homo sapiens, UniProt P24941); experiment: Inhibition of CDK2/Cyclin A Retinoblastoma Kinase Activity; assay type: biochemical; conditions: for Ki: apparent Ki, CDK2/proteolyzed cyclin A, Rb fragment substrate, 25 μM ATP
Method in brief: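 Radiometric filter-binding readout of phosphate transfer to an Rb substrate fragment by purified CDK2/truncated cyclin A at 10 or 19 nM. Run at pH 7.4 with 25 μM ATP, 30 °C, 60–75 min, linear rates; background without enzyme subtracted, Ki from competitive-inhibition models.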

[2] = molecular target: human CDK4 and genetically truncated (1-264) cyclin D3 (Homo sapiens, UniProt P11802); experiment: Inhibition of CDK4/Cyclin D Retinoblastoma Kinase Activity; assay type: biochemical; conditions: for Ki: apparent Ki, CDK4/truncated cyclin D3, Rb fragment substrate, 25 μM ATP
Chain of human CDK4 and genetically truncated (1-264) cyclin D3 (P11802 whole entry, the tested form may be a part): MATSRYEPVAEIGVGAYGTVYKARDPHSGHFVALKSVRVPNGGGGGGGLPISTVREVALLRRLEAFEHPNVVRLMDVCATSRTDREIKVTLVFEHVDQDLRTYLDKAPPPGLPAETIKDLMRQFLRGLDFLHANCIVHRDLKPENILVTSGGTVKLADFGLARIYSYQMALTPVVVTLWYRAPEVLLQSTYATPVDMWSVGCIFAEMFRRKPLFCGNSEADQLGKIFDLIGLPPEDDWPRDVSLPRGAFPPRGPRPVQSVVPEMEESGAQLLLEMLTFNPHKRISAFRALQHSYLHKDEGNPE
Chain of human CDK4 and genetically truncated (1-264) cyclin D3 (P30281 1-264 partner): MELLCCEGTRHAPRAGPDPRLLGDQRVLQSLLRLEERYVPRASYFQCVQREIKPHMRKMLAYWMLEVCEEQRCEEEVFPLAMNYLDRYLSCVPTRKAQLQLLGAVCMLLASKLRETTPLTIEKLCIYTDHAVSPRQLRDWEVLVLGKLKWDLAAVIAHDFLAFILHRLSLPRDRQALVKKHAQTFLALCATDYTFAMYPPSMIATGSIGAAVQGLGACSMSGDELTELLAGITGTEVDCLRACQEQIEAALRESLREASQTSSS
Method in brief: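 Apparent Ki values come from competitive or competitive tight-binding inhibition fits of background-corrected 32P/33P incorporation into His-tagged Rb fragment (386-928), captured on nitrocellulose. Reaction: 5 nM insect-cell-expressed human CDK4 with cyclin D3 (1-264), 25 μM ATP, pH 7.4 HEPES, 2% DMSO, 30° C., 20 min, extended to 60 min for tight-binding inhibitors.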

[3] = system: HCT-116 cell line; experiment: Inhibition of cell growth, tetrazolium salt (MTT) assay; assay type: cell-based; conditions: for IC50: HCT-116, 120 h, MTT, three to five days, read-out: HCT-116 IC50; for HCT-116 % Inhibition at 0.25 μM: 0.25 μM compound
Method in brief: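 Growth inhibition is scored relative to cells receiving only 0.5% (v/v) DMSO. Plated cells rest 4 h, then take compound for three to five days at 37° C; MTT reduction to formazan is read at 540 nm.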

[4] = Homo sapiens, first HCT-116 column (c4)
[5] = Homo sapiens, second HCT-116 column (c5)
[6] = 0.03 μM compound, Table 2, 0.03 µM

SMILES	CDK2 % Inhibition At 0.03 μM ([1]; 0.03 μM compound, Table 2) [%]	CDK4 % Inhibition at 0.03 μM ([2]; 0.03 μM compound, Table 2) [%]	HCT-116 % Inhibition at 0.25 μM ([3]; HCT-116, Table 2) [%]	other results
Nc1nc(NC2CCN(S(=O)(=O)c3ccc(CCNc4cccc(O)c4)nc3)CC2)sc1C(=O)c1c(F)cccc1F [Example N6, [4-Amino-2-(1-{6-[2-(3-hydroxy-phenylamino)-ethyl]-pyridine-3-sulfonyl}-piperidin-4-ylamino)-thiazol-5-yl]-(2,6-difluoro-phenyl)-methanone Hydrochloride Salt.]	–	–	–	Ki [1]: 0.3 nM; Ki [2]: 0.31 nM; IC50 [3, 4]: 410 nM; IC50 [3, 5]: 1300 nM
Nc1nc(NC2CCN(S(=O)(=O)c3ccc(CCN4CCC(O)C4)nc3)CC2)sc1C(=O)c1c(F)cccc1F (stereo not shown) [Example N7, [4-Amino-2-(1-{6-[2-(3-hydroxy-pyrrolidin-1-yl)-ethyl]-pyridine-3-sulfonyl}-piperidin-4-ylamino)-thiazol-5-yl]-(2,6-difluoro-phenyl)-methanone Hydrochloride Salt.]	–	–	–	Ki [1]: 0.93 nM; Ki [2]: 0.35 nM; IC50 [3, 4]: 890 nM; IC50 [3, 5]: 4000 nM
C[C@@H]1CN(CCc2ccc(S(=O)(=O)N3CCC(Nc4nc(N)c(C(=O)c5c(F)cccc5F)s4)CC3)cn2)C[C@H](C)N1 [Example N8]	–	–	–	Ki [1]: 1.1 nM; Ki [2]: 0.32 nM; IC50 [3, 4]: 1300 nM; IC50 [3, 5]: 5000 nM
Nc1nc(NC2CCN(S(=O)(=O)c3ccc(CCN4CCC[C@H]4CO)nc3)CC2)sc1C(=O)c1c(F)cccc1F [Example N9, [4-Amino-2-(1-{6-[2-(2S-hydroxymethyl-pyrrolidin-1-yl)-ethyl]-pyridine-3-sulfonyl}-piperidin-4-ylamino)-thiazol-5-yl]-(2,6-difluoro-phenyl)-methanone Hydrochloride Salt.]	–	–	–	Ki [1]: 0.8 nM; Ki [2]: 0.26 nM; IC50 [3, 4]: 70 nM; IC50 [3, 5]: 700 nM
Nc1nc(NC2CCN(S(=O)(=O)c3ccc(CCN4C[C@@H]5[C@@H](N)[C@@H]5C4)nc3)CC2)sc1C(=O)c1c(F)cccc1F [Example N10, [4-Amino-2-(1-{6-[2-(1α, 5β, 6γ-amino-3-aza-bicyclo[3.1.0]hex-3-yl)-ethyl]-pyridine-3-sulfonyl}-piperidin-4-ylamino)-thiazol-5-yl]-(2,6-difluoro-phenyl)-methanone Hydrochloride Salt.]	–	–	–	Ki [1]: 1.3 nM; Ki [2]: 0.21 nM; IC50 [3, 4]: 380 nM; IC50 [3, 5]: 3000 nM
CN(C)CCc1ccc(S(=O)(=O)N2CCC(Nc3nc(N)c(C(=O)c4c(F)cccc4F)s3)CC2)cn1 [Example N11, (4-Amino-2-{1-[6-(2-dimethylamino-ethyl)-pyridine-3-sulfonyl]-piperidin-4-ylamino}-thiazol-5-yl)-(2,6-difluoro-phenyl)-methanone TFA Salt.]	–	–	–	Ki [1]: 1.6 nM; Ki [2]: 0.39 nM; IC50 [3, 4]: 140 nM; IC50 [3, 5]: 1600 nM
CN(C)CCc1ncc(S(=O)(=O)N2CCC(Nc3nc(N)c(C(=O)c4c(F)cccc4F)s3)CC2)cn1 [Example N12, (4-Amino-2-{1-[2-(2-dimethylamino-ethyl)-pyrimidine-5-sulfonyl]-piperidine-4-ylamino}-thiazol-5-yl)-(2,6-difluoro-phenyl)-methanone Hydrochloride Salt.]	–	–	–	Ki [1]: 1.7 nM; Ki [2]: 0.62 nM; IC50 [3, 4]: 67 nM; IC50 [3, 5]: 130 nM
Nc1nc(NC2CCN(C(=O)NC3C[C@H]3c3ccccc3)CC2)sc1C(=O)c1c(F)cccc1F (stereo partly shown) [Example O1]	–	–	–	inhibition at 0.03 µM ([1]; 0.03 μM compound, Table 2): 30%; inhibition at 0.03 µM ([2]; 0.03 μM compound, Table 2): -4%; inhibition at 0.25 µM ([3]; Homo sapiens, HCT-116, 0.25 μM compound, HCT-116, Table 2, read-out: HCT-116 % Inhibition at 0.25 μM): 0%
C[Si](C)(C)NC(=O)N1CCC(Nc2nc(N)c(C(=O)c3c(F)cccc3F)s2)CC1 [Example O2]	34	6	0	–
COc1ccc(NC(=O)N2CCC(Nc3nc(N)c(C(=O)c4c(F)cccc4F)s3)CC2)c(OC)c1 [Example O8]	37	15	0	–
COc1ccc(OC)c(NC(=O)N2CCC(Nc3nc(N)c(C(=O)c4c(F)cccc4F)s3)CC2)c1 [Example O9]	35	2	13	–
Nc1nc(NC2CCN(C(=O)Nc3ccccc3C(F)(F)F)CC2)sc1C(=O)c1c(F)cccc1F [Example O10]	28	5	0	–
COc1ccc(NC(=O)N2CCC(Nc3nc(N)c(C(=O)c4c(F)cccc4F)s3)CC2)cc1 [Example O21]	–	–	–	CDK2 % Inhibition At 0.03 μM [1, 6]: 37%; CDK4 % Inhibition at 0.03 μM [2, 6]: 13%; HCT-116 % Inhibition at 0.25 μM ([3]; HCT-116, Table 2, 0.25 µM): 21%
Cc1ccc(S(=O)(=O)NC(=O)N2CCC(Nc3nc(N)c(C(=O)c4c(F)cccc4F)s3)CC2)cc1 [Example O25]	31	3	27	–
Nc1nc(NC2CCN(C(=O)NC(=O)c3ccccc3)CC2)sc1C(=O)c1c(F)cccc1F [Example O26]	33	10	12	–

Second part, led by results:

CDK2 % Inhibition At 0.03 μM ([1]; 0.03 μM compound, Table 2) [%]	CDK4 % Inhibition at 0.03 μM ([2]; 0.03 μM compound, Table 2) [%]	SMILES	HCT-116 % Inhibition at 0.25 μM ([3]; HCT-116, Table 2) [%]	other results
34	6	Nc1nc(NC2CCN(C(=O)Nc3ccccc3)CC2)sc1C(=O)c1c(F)cccc1F [Example O3]	0	–
27	10	Nc1nc(NC2CCN(C(=O)Nc3ccccc3Br)CC2)sc1C(=O)c1c(F)cccc1F [Example O4]	4	–
35	3	Nc1nc(NC2CCN(C(=O)Nc3ccccc3F)CC2)sc1C(=O)c1c(F)cccc1F [Example O5]	31	–
36	10	Nc1nc(NC2CCN(C(=O)Nc3ccccc3Cl)CC2)sc1C(=O)c1c(F)cccc1F [Example O6]	12	–
40	10	COc1ccccc1NC(=O)N1CCC(Nc2nc(N)c(C(=O)c3c(F)cccc3F)s2)CC1 [Example O7]	43	–
35	6	Cc1ccccc1NC(=O)N1CCC(Nc2nc(N)c(C(=O)c3c(F)cccc3F)s2)CC1 [Example O11]	0	–
31	3	Nc1nc(NC2CCN(C(=O)Nc3cccc(Br)c3)CC2)sc1C(=O)c1c(F)cccc1F [Example O12]	25	–
37	8	Nc1nc(NC2CCN(C(=O)Nc3cccc(F)c3)CC2)sc1C(=O)c1c(F)cccc1F [Example O13]	22	–
36	9	Nc1nc(NC2CCN(C(=O)Nc3cccc(Cl)c3)CC2)sc1C(=O)c1c(F)cccc1F [Example O14]	23	–
36	4	COc1cccc(NC(=O)N2CCC(Nc3nc(N)c(C(=O)c4c(F)cccc4F)s3)CC2)c1 [Example O15]	13	–
34	5	Nc1nc(NC2CCN(C(=O)Nc3cccc(C(F)(F)F)c3)CC2)sc1C(=O)c1c(F)cccc1F [Example O16]	6	–
32	6	Cc1cccc(NC(=O)N2CCC(Nc3nc(N)c(C(=O)c4c(F)cccc4F)s3)CC2)c1 [Example O17]	8	–
27	9	Nc1nc(NC2CCN(C(=O)Nc3ccc(Br)cc3)CC2)sc1C(=O)c1c(F)cccc1F [Example O18]	20	–
31	9	Nc1nc(NC2CCN(C(=O)Nc3ccc(F)cc3)CC2)sc1C(=O)c1c(F)cccc1F [Example O19]	7	–
26	7	Nc1nc(NC2CCN(C(=O)Nc3ccc(Cl)cc3)CC2)sc1C(=O)c1c(F)cccc1F [Example O20]	15	–
34	13	CCOC(=O)c1ccc(NC(=O)N2CCC(Nc3nc(N)c(C(=O)c4c(F)cccc4F)s3)CC2)cc1 [Example O22]	25	–
36	10	Nc1nc(NC2CCN(C(=O)Nc3ccc(C(F)(F)F)cc3)CC2)sc1C(=O)c1c(F)cccc1F [Example O23]	24	–
34	21	Cc1ccc(NC(=O)N2CCC(Nc3nc(N)c(C(=O)c4c(F)cccc4F)s3)CC2)cc1 [Example O24]	6	–
